Structures can show the parent of a compound that is named as a salt.

Consider 16 molecules from patent US20230019491A1, “PYRIMIDINE TBK/IKKe INHIBITOR COMPOUNDS AND USES THEREOF” (Merck Patent GmbH, priority 2017, published 2023).

In one experiment the target is T1, IKKε (Homo sapiens, UniProt Q14164).
T1 sequence (Q14164 1-716): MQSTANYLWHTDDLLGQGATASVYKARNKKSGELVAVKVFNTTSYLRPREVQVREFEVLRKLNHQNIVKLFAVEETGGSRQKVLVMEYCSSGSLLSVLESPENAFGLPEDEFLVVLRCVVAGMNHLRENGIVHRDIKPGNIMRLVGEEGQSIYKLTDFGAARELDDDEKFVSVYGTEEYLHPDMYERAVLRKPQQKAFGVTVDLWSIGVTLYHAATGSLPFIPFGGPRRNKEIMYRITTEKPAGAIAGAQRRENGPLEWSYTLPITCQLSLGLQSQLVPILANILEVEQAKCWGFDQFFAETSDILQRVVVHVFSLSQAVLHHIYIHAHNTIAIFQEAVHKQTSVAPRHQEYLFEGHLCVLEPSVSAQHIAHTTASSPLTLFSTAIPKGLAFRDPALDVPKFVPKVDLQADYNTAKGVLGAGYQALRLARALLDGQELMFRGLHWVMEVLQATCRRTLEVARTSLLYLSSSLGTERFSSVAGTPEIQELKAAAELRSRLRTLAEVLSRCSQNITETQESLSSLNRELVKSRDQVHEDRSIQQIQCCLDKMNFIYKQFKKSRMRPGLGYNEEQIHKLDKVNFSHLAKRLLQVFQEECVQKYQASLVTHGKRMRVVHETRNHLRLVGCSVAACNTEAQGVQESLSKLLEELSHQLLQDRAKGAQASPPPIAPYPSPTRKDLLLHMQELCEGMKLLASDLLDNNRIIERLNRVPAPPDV
Nature of the experiment: IKKε biochemical assay. The settings on record: 10 point 1:4 dose response, 30 uM top concentration, 90 min at 25° C., LabChip EZ Reader II; read-out: IKKε_IC50. The procedure: (§1) Test compounds were transferred into Labcyte polypropylene 384 well plates (P055-25) and diluted to 3 mM using DMSO. […] 100 uM of a reference compound (1 uM final high concentration). Backfilling was performed if necessary so that all wells contain 1% DMSO final:
add 75 nl DMSO/well into columns 1, 2 and 24 using Labcyte Echo. add 75 nl 1.0 mM staurosporine/well into column 23 using Labcyte Echo (10 uM final) add 4.5 ul enzyme/well using multidrop dispenser add 3 ul substrate/well using multidrop dispenser incubate at 25° C. for 90 min. add 7.5 ul 2× stop buffer read on labchip ez reader II using IKKε.
(§2) Raw data files were opened in the Caliper LabChip Reviewer program (Version 3.0.265.0 SP2) and peak assignments were adjusted to reflect “substrate first” with the software's post-run analysis options. A spline-fit baseline was applied using the software's analysis algorithm.

The next experiment deals with T2, TBK1 (Homo sapiens, UniProt Q9UHD2).
T2 sequence (Q9UHD2 1-729): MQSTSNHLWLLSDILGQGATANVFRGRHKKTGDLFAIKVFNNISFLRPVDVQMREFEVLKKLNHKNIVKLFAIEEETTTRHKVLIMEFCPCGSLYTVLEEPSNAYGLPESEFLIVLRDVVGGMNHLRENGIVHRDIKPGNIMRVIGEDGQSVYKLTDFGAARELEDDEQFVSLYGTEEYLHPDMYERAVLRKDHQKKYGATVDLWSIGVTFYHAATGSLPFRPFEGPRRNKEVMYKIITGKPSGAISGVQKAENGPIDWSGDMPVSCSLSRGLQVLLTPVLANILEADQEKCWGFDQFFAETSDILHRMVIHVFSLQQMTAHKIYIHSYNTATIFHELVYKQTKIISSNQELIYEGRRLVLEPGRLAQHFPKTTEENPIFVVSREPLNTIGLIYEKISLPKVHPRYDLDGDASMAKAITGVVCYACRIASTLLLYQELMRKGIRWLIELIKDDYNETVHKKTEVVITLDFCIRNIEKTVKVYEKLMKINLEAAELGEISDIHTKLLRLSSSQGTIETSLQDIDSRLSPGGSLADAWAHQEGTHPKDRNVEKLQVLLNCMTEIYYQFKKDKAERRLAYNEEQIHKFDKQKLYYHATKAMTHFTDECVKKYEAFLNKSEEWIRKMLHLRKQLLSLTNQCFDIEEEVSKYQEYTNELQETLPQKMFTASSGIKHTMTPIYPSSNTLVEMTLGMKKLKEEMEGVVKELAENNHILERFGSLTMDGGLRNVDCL
As to the kind of experiment: TBK biochemical assay. The settings on record: 10 point 1:4 dose response, 30 uM top concentration, 90 min at 25° C., LabChip EZ Reader II; read-out: TBK1_IC50. As to the method:
as §1
add 75 nl DMSO/well into columns 1, 2 and 24 using Labcyte Echo. add 75 nl 1.0 mM staurosporine/well into column 23 using Labcyte Echo ([…]) add 4.5 ul enzyme/well using multidrop dispenser add 3 ul substrate/well using multidrop dispenser incubate at 25° C. in Heidolph incubator for 90 min. add 7.5 ul 2× stop buffer using multidrop dispenser read on labchip ez reader II using TBK1.job
as §2

For the molecule `C[C@@H](O)C(=O)N1CCC(Oc2ccc(-c3ccnc(Nc4ccc(C5CCN(C)CC5)cc4)n3)cc2C#N)C(F)(F)C1` (stereo partly drawn) [Example 145, 2-([3,3-difluoro-1-[(2R)-2-hydroxypropanoyl]piperidin-4-yl]oxy)-5-(2-[[4-(1-methylpiperidin-4-yl)phenyl]amino]pyrimidin-4-yl)benzonitrile], the IC50 on IKKε and on TBK1 was below 0.1 µM in each case.
On to `C[C@@H](O)C(=O)N1CCC(Oc2ccc(-c3ccnc(Nc4ccc(N5CCN(C6COC6)CC5)cc4)n3)cc2C#N)C1` (stereo partly drawn) [Example 179, 2-([1-[(2R)-2-hydroxypropanoyl]pyrrolidin-3-yl]oxy)-5-[2-([4-[4-(oxetan-3-yl)piperazin-1-yl]phenyl]amino)pyrimidin-4-yl]benzonitrile], for which the IC50 at IKKε and on TBK1 was below 0.1 µM in each case.
For `COc1nc(Nc2nccc(-c3cnc(OC4CCN(C(=O)[C@H](C)O)CC4(F)F)c(C#N)c3)n2)ccc1N1CCN(C2COC2)CC1` (stereo partly drawn) [Example 305, 2-([3,3-difluoro-1-[(2S)-2-hydroxypropanoyl]piperidin-4-yl]oxy)-5-[2-([6-methoxy-5-[4-(oxetan-3-yl)piperazin-1-yl]pyridin-2-yl]amino)pyrimidin-4-yl]pyridine-3-carbonitrile], the IC50 at IKKε and at TBK1 was below 0.1 µM throughout.
With `COc1nc(Nc2nccc(-c3ccc(OC4CCNCC4(F)F)c(C#N)c3)n2)ccc1N1CCN(C)C[C@@H]1C` (stereo partly drawn) [Example 109, 2-(3,3-Difluoro-piperidin-4-yloxy)-5-{2-[5-((S)-2,4-dimethyl-piperazin-1-yl)-6-methoxy-pyridin-2-ylamino]-pyrimidin-4-yl}-benzonitrile], the IC50 on IKKε and at TBK1 was below 0.1 µM throughout.
As to `COc1nc(Nc2nccc(-c3ccc(O[C@@H]4CCN(C(=O)[C@H](C)O)C[C@@H]4F)c(C#N)c3)n2)ccc1C1CCN(C2COC2)CC1` [Example 194, 2-[(3S,4R)-3-Fluoro-1-((S)-2-hydroxy-propionyl)-piperidin-4-yloxy]-5-[2-(2-methoxy-1′-oxetan-3-yl-1′,2′,3′,4′,5′,6′-hexahydro-[3,4′]bipyridinyl-6-ylamino)-pyrimidin-4-yl]-benzonitrile], the IC50 at IKKε and at TBK1 was below 0.1 µM throughout.
For the molecule `COc1nc(Nc2nccc(-c3ccc(OC4CCN(C(=O)C(C)O)CC4(F)F)c(C#N)c3)n2)ccc1C1CCN(C2COC2)CC1` (centres unmarked) [Example 329, 2-[[33-difluoro-1-(2-hydroxypropanoyl)piperidin-4-yl]oxy]-5-[2-([6-methoxy-5-[1-(oxetan-3-yl)piperidin-4-yl]pyridin-2-yl]amino)pyrimidin-4-yl]benzonitrile], the IC50 on IKKε and at TBK1 was below 0.1 µM throughout.
For `COc1nc(Nc2nccc(-c3ccc(OC4CCNCC4(F)F)c(C#N)c3)n2)ccc1N1CCN(C2COC2)CC1` (centres unmarked) [Example 119], the IC50 on IKKε and on TBK1 was below 0.1 µM throughout.
For `C[C@@H](O)C(=O)N1CC(COc2ccc(-c3ccnc(Nc4ccc(N5CCN(C6COC6)CC5)cc4)n3)cc2C#N)C1` [Example 278, 2-([1-[(2R)-2-hydroxypropanoyl]azetidin-3-yl]methoxy)-5-[2-([4-[4-(oxetan-3-yl)piperazin-1-yl]phenyl]amino)pyrimidin-4-yl]benzonitrile], the IC50 on IKKε and at TBK1 was 0.1 to 1 µM each time.
As to `COc1nc(Nc2nccc(-c3ccc(OC4CCOCC4)c(C#N)n3)n2)ccc1C(=O)NC1CN2CCC1CC2` (centres unmarked) [Example 29, N-[1-azabicyclo[2.2.2]octan-3-yl]-6-([4-[6-cyano-5-(oxan-4-yloxy)pyridin-2-yl]pyrimidin-2-yl]amino)-2-methoxypyridine-3-carboxamide], the IC50 on IKKε and on TBK1 was below 0.1 µM throughout.
As for `CN1CCN(c2ccc(Nc3nccc(-c4ccc(OC5CCN(C)C5)c(C#N)c4)n3)nc2)CC1` (centres unmarked) [Example 82, 5-(2-[[5-(4-methylpiperazin-1-yl)pyridin-2-yl]amino]pyrimidin-4-yl)-2-[(1-methylpyrrolidin-3-yl)oxy]benzonitrile hydrochloride], the IC50 on IKKε is 1 to 5 µM; at TBK1, above 5 µM.
As to `COc1nc(Nc2nccc(-c3cc(C#N)c(OC4CCOCC4)cn3)n2)ccc1C1CCN(C)CC1` [Example 45, 2-(2-[[6-methoxy-5-(1-methylpiperidin-4-yl)pyridin-2-yl]amino]pyrimidin-4-yl)-5-(oxan-4-yloxy)pyridine-4-carbonitrile], the IC50 at IKKε was 1 to 5 µM; on TBK1, above 5 µM.
`COc1nc(Nc2nccc(-c3ccc(OC4CCN(C(=O)CO)CC4)c(C#N)c3)n2)ccc1N1CCN(C2COC2)CC1` [Example 186, 2-(1-(2-hydroxyacetyl)piperidin-4-yloxy)-5-(2-(6-methoxy-5-(4-(oxetan-3-yl)piperazin-1-yl)pyridin-2-ylamino)pyrimidin-4-yl)benzonitrile]: the IC50 at IKKε and at TBK1 was below 0.1 µM throughout.
On to `COc1nc(Nc2nccc(-c3ccc(OC4CCN(C(=O)CO)CC4(F)F)c(C#N)c3)n2)ccc1C1CCN(C)CC1` (stereo not drawn) [Example 234, 2-[[3,3-difluoro-1-(2-hydroxyacetyl)piperidin-4-yl]oxy]-5-(2-[[6-methoxy-5-(l-methylpiperidin-4-yl)pyridin-2-yl]amino]pyrimidin-4-yl)benzonitrile], for which the IC50 on IKKε and on TBK1 was below 0.1 µM in each case.
Turning to `COc1nc(Nc2nccc(-c3ccc(OC4CCNC4)c(C#N)c3)n2)ccc1N1CCN(C2COC2)CC1` (centres unmarked) [Example 182, 5-[2-([6-methoxy-5-[4-(oxetan-3-yl)piperazin-1-yl]pyridin-2-yl]amino)pyrimidin-4-yl]-2-(pyrrolidin-3-yloxy)benzonitrile], the IC50 on IKKε and at TBK1 was below 0.1 µM throughout.
As for `COc1nc(Nc2nccc(-c3ccc(OC4CCN(C(=O)[C@H](C)O)CC4(F)F)c(C#N)c3)n2)ccc1N1CCN(C2COC2)[C@H](C)C1` (stereo partly drawn) [Example 128, 2-[3,3-Difluoro-1-((S)-2-hydroxy-propionyl)-piperidin-4-yloxy]-5-{2-[6-methoxy-5-((R)-3-methyl-4-oxetan-3-yl-piperazin-1-yl)-pyridin-2-ylamino]-pyrimidin-4-yl}-benzonitrile], the IC50 at IKKε and at TBK1 was below 0.1 µM throughout.
In the case of `COc1nc(Nc2nccc(-c3ccc(O[C@H]4CCN(C(=O)[C@H](C)O)C[C@@H]4F)c(C#N)c3)n2)ccc1C1CCN(C2COC2)CC1` [Example 189, 2-[(3S,4S)-3-Fluoro-1-((S)-2-hydroxy-propionyl)-piperidin-4-yloxy]-5-[2-(2-methoxy-1′-oxetan-3-yl-1′,2′,3′,4′,5′,6′-hexahydro-[3,4′]bipyridinyl-6-ylamino)-pyrimidin-4-yl]-benzonitrile], the IC50 on IKKε and at TBK1 was below 0.1 µM throughout.
